In one data set the test system is Gaeumannomyces graminis. Briefly: Fungicidal activity against Gaeumannomyces graminis / liquid culture (take-all of cereals). In kind it is cell-based. Conditions: 4-5 days after application, read-out: disease control (inhibition of growth, photometrically). The essentials: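 Cryostored mycelial fragments in potato dextrose broth added to 96-well plates with test compound in DMSO. Plates kept at 24° C; growth inhibition measured photometrically 4-5 days after application.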

Data set [1] relates to Monographella nivalis (Microdochium nivale). The experiment in a line: Fungicidal activity against Monographella nivalis (Microdochium nivale) / liquid culture (foot rot cereals). Type of data set: cell-based. Conditions: 4-5 days after application, read-out: disease control (inhibition of growth, photometrically). An outline of the steps:
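Conidia in potato dextrose broth added to microtiter wells holding test compound in DMSO. Incubated at 24° C.; growth inhibition read photometrically 4-5 days after application.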

Data set [2] has as its system Glomerella lagenarium (Colletotrichum lagenarium). Briefly: Fungicidal activity against Glomerella lagenarium (Colletotrichum lagenarium) / liquid culture (anthracnose). Type of data set: cell-based. Conditions: Colletotrichum orbiculare, 3-4 days after application, read-out: disease control (inhibition of growth, photometrically). The essentials: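 Cryostored conidia mixed into potato dextrose broth were added to test compound in DMSO. Plates were incubated at 24° C. Growth inhibition was measured photometrically 3-4 days after application.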

In data set [3] the test system is Phaeosphaeria nodorum (Septoria nodorum). The experiment in a line: Fungicidal activity against Phaeosphaeria nodorum (Septoria nodorum) / wheat / leaf disc preventative (glume blotch). Conditions: Parastagonospora nodorum, foliar, wheat leaf segments, inoculated 2 days after application, compared to untreated, read-out: disease control. Type of data set: in vivo. The essentials: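 Wheat cv. Kanzler leaf segments on agar, sprayed with diluted formulated compound, then spore-inoculated 2 days later. Kept at 20 °C, 75% rh, 12 h light/12 h dark; percent disease control versus untreated scored once untreated discs show disease, 5–7 days after application.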

In another data set the test system is Alternaria solani. Briefly: Fungicidal activity against Alternaria solani / tomato / leaf disc (early blight). In kind it is in vivo. The note with it: foliar, tomato leaf disks, inoculated 2 days after application, compared to untreated, read-out: disease control. The protocol: Fungicidal Activity Against Alternaria solani/Tomato/Leaf Disc (Early Blight) Tomato leaf disks cv. Baby were placed on agar in multiwell plates (24-well format) and sprayed with the formulated test compound diluted in water. The leaf disks were inoculated with a spore suspension of the fungus 2 days after application. The inoculated leaf disks were incubated at 23° C./21° C.

Data set [4] deals with Thanatephorus cucumeris (Rhizoctonia solani). Briefly: Fungicidal activity against Thanatephorus cucumeris (Rhizoctonia solani) / liquid culture (foot rot, damping-off). In kind it is cell-based. The note with it: 3-4 days after application, read-out: disease control (inhibition of growth, photometrically). The essentials:
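Fungal mycelia fragments from fresh liquid culture were mixed into potato dextrose broth and added to test compounds supplied in DMSO. Incubation was at 24° C. Growth inhibition was read photometrically 3-4 days after application.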

In data set [5] the test system is Botryotinia fuckeliana (Botrytis cinerea). Briefly: Fungicidal activity against Botryotinia fuckeliana (Botrytis cinerea) / liquid culture (gray mould). Conditions: 3-4 days after application, read-out: disease control (inhibition of growth, photometrically). Type of data set: cell-based. The essentials: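 Conidia from cryogenic storage were mixed into Vogels broth and added to wells containing compound in DMSO. Plates incubated at 24 °C; growth inhibition read photometrically 3–4 days after application.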

For a further data set, the system named is Pyrenophora teres. The experiment in a line: Fungicidal activity against Pyrenophora teres / barley / leaf disc preventative (net blotch). In kind it is in vivo. The note with it: foliar, barley leaf segments, inoculated 2 days after application, compared to untreated, read-out: disease control. An outline of the steps: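 Barley leaf segments (cv. Hasso) on agar sprayed with formulated compound in water, then spore-inoculated 2 days later. Kept at 20 °C, 65% rh, 12 h light/dark; disease control versus untreated scored 5-7 days after application.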

The subject of data set [6] is Puccinia recondita f. sp. tritici. Briefly: Fungicidal activity against Puccinia recondita f. sp. tritici / wheat / leaf disc preventative (brown rust). The note with it: foliar, wheat leaf segments, inoculated 1 day after application, compared to untreated, read-out: disease control. In kind it is in vivo. The essentials:
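Wheat leaf segments (cv. Kanzler) on agar sprayed with formulated compound in water, inoculated with spore suspension 1 day later. Incubated at 19° C, 75% rh, 12 h light/12 h dark; percent disease control versus untreated scored 7-9 days after application.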

For data set [7], the system named is Blumeria graminis f. Sp. tritici (Erysiphe graminis f. sp. tritici). Briefly: Fungicidal activity against Blumeria graminis f. sp. tritici / wheat / leaf disc preventative (powdery mildew on wheat). In kind it is in vivo. Conditions: foliar, wheat leaf segments, inoculated 1 day after application, compared to untreated, read-out: disease control. An outline of the steps:
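Wheat cv. Kanzler leaf segments on agar were sprayed with the formulated compound diluted in water and inoculated with powdery mildew 1 day later. Incubation was at 20 °C and 60% rh: 24 h dark, then 12 h light/12 h dark. Percent disease control versus untreated was scored 6–8 days after application.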

For data set [8], the system named is Mycosphaerella arachidis (Cercospora arachidicola). Briefly: Fungicidal activity against Mycosphaerella arachidis (Cercospora arachidicola) / liquid culture (early leaf spot). In kind it is cell-based. Conditions: 4-5 days after application, read-out: disease control (inhibition of growth, photometrically). The essentials: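 Cryopreserved conidia in potato dextrose broth added to compound in DMSO in microtiter plates. Incubation at 24 °C; growth inhibition read photometrically 4-5 days after application.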

The subject of data set [9] is Mycosphaerella graminicola (Septoria tritici). The experiment in a line: Fungicidal activity against Mycosphaerella graminicola (Septoria tritici) / liquid culture (Septoria blotch). In kind it is cell-based. The note with it: Zymoseptoria tritici, 4-5 days after application, read-out: disease control (inhibition of growth, photometrically). The essentials: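 Cryo-stored conidia were suspended in potato dextrose broth and added to test compound dispensed from DMSO solution. Plates were held at 24° C., and growth inhibition was measured photometrically 4-5 days after application.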

As for `c1ccc(Cc2cccc(-c3ncc4c(n3)CCC3(C4)OCCO3)n2)cc1` [Compound 19], the melting point (in general, the temperature, or range, at which the solid turns liquid) was in the range of 236 to 237 °C. Moreover, the inhibition (as a rule, the drop in the measured response relative to a control, in per cent) at 200 ppm with Gaeumannomyces graminis is ≥ 80%. Also, the inhibition at 200 ppm in data set [1] is ≥ 80%. Further, in data set [2], the inhibition at 200 ppm is ≥ 80%. Besides, the pest or weed control at 200 ppm in [3] was ≥ 80%. In the data set with Alternaria solani, the pest or weed control at 200 ppm was ≥ 80%. For the same molecule, in data set [4], the inhibition at 200 ppm was ≥ 80%. The inhibition at 200 ppm in [5] was ≥ 80%. For the same molecule, the pest or weed control at 200 ppm in the data set with Pyrenophora teres was ≥ 80%. Besides, the pest or weed control at 200 ppm in [6] was ≥ 80%. For the same molecule, in data set [7], the pest or weed control at 200 ppm was ≥ 80%. Besides, the inhibition at 200 ppm in data set [8] is ≥ 80%. Besides, the inhibition at 200 ppm in [9] was ≥ 80%.
With `COc1ccc(Cc2cccc(-c3ncc4c(n3)CCOC4)n2)cc1` [Compound 21], the melting point was 216 to 219 °C. Also, the inhibition at 200 ppm in the data set with Gaeumannomyces graminis was ≥ 80%. For the same molecule, the inhibition at 200 ppm in data set [1] is ≥ 80%. The inhibition at 200 ppm in data set [2] was ≥ 80%. The pest or weed control at 200 ppm in data set [3] was ≥ 80%. Further, the pest or weed control at 200 ppm in the data set on Alternaria solani is ≥ 80%. In addition, the inhibition at 200 ppm in data set [4] was ≥ 80%. The inhibition at 200 ppm in data set [5] is ≥ 80%. For the same molecule, the pest or weed control at 200 ppm in the data set with Pyrenophora teres is ≥ 80%. In addition, in data set [6], the pest or weed control at 200 ppm is ≥ 80%. Further, in data set [7], the pest or weed control at 200 ppm is ≥ 80%. Besides, the inhibition at 200 ppm in [8] was ≥ 80%. In [9], the inhibition at 200 ppm is ≥ 80%.

The values above are taken from patent US20130281467A1, “NOVEL MICROBICIDES” (SYNGENTA PARTICIPATIONS AG, priority 2010, published 2013).
